Assay results: patent US4269855A, “(3-Alkylamino-2-hydroxypropoxy)-furan-2-carboxylic acid anilides and physiologically tolerated acid addition salts thereof and medicaments containing them” (A. Nattermann & Cie. GmbH, priority 1979, dated 1981)
Counter-ions that a name gives are not always drawn.

Experiments:
β-receptor [1] = biological target: T1, β-receptor (Cavia porcellus, UniProt H0W3H1); experiment: Inhibition of isoprenalin-induced increase in contractile force, isolated guinea pig left auricle; design: species or system guinea pig (Pirbright White); conditions: Bath, isoprenalin 3.2×10^-8 molar, probit analysis, read-out: ED50, inhibition of increase in contractile force induced by isoprenaline
T1 sequence (H0W3H1 1-470): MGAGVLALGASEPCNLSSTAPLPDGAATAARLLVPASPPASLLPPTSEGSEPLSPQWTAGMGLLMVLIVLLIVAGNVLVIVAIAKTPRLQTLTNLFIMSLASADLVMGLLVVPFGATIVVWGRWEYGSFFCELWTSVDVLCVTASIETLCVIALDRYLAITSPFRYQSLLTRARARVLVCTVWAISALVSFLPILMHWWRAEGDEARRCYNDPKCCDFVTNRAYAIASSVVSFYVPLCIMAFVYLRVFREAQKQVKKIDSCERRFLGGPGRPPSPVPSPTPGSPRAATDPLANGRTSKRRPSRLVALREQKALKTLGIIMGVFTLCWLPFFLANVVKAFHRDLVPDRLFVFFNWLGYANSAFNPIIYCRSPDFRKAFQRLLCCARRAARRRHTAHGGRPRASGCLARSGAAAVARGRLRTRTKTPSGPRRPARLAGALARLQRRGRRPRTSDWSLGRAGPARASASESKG

β-receptor [2] = biological target: T1, β-receptor; experiment: Inhibition of isoprenalin-induced increase in pulse rate, isolated guinea pig right auricle; design: species or system guinea pig (Pirbright White); conditions: Bath, isoprenalin 5.8×10^-9 molar, probit analysis, read-out: ED50, inhibition of increase in pulse rate induced by isoprenalin
β-receptor [3] = biological target: β-receptor (Canis lupus familiaris, UniProt P79148); experiment: Inhibition of isoprenalin-induced increase in contractile force (dp/dtmax), anaesthetised dogs; format: in vivo, mongrel dogs; conditions: for ED50: dog, anaesthetised dogs, isoprenalin 0.5 μg/kg i.v., determined graphically
β-receptor (Canis lupus familiaris, UniProt P79148), sequence (P79148 whole entry): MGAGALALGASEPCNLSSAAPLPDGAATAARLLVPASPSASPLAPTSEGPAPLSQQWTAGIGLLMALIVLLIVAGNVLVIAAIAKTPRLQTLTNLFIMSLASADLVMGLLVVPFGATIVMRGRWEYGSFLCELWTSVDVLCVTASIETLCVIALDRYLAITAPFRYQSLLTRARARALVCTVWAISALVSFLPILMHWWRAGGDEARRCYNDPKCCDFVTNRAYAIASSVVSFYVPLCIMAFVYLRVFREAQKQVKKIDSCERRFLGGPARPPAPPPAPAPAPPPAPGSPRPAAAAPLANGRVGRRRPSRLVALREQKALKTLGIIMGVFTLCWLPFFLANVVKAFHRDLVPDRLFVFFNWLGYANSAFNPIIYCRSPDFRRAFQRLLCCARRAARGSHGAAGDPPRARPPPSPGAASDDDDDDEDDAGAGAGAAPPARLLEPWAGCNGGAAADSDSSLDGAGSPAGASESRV
Description: (§1) The ventricular pressure of mongrel dogs, anesthetized with chloralose-urethane, was determined, together with other circulation parameters, with the aid of a Millar tip catheter (type PC 350 A, Millar Instruments, Houston, Tex.) introduced into the left heart ventricle, and the maximum rate of pressure increase (dp/dtmax) was determined by differentiation (HSE operational amplifier, Hugstetten). This rate serves as a measure of the contractile force.

in vivo = experiment: in vivo
Description: The acute toxicity was determined on NMRI mice by intravenous or oral administration of increasing doses of the compounds of the invention. The death rates were determined within the 7-day follow-up period and the average lethal dose was determined by probit analysis.

β-receptor [4] = experiment: β-receptor blocking action, isolated organs and whole animal (overall statement); conditions: in words
Description: as §1

SMILES | IC50 (β-receptor [1]) [nM] | IC50 (β-receptor [2]) [nM] | ED50 (β-receptor [3]; intraduodenal) [mg/kg] | ED50 (β-receptor [3]; intravenous) [mg/kg] | action when administered intraduodenally (β-receptor [3]; intraduodenal, in words) | selectivity ratio (in vivo; in vivo) | toxicity (in vivo; in words) | LD50 at 168 h (in vivo; mouse, in vivo, iv) [mg/kg] | LD50 at 168 h (in vivo; mouse, in vivo, po) [mg/kg] | "therapeutic range" quotient (LD50/ED50), times as high as the compounds already known (in vivo; versus propranolol hydrochloride and practolol hydrochloride) | β-receptor blocking action / pharmacological activity (β-receptor [4]) | LD50, acute toxicity (in vivo; mouse, in vivo, iv, 168 h) [mg/kg]
CC(C)(C)NCC(O)COc1ccccc1NC(=O)c1ccco1 (centres unmarked) [Example 1, 2'-(2-hydroxy-3-tert.-butylaminopropoxy)-furan-2-carboxylic acid anilide] | 290 | 98 | 0.11 | 0.025 | good action | 4560 | very favorable | 55 | 502 | 1.5-3 times | strong β-receptor blocking action both on isolated organs and on the whole animal | –
CC(=O)Nc1ccc(OCC(O)CNC(C)C)cc1 (centres unmarked) [Practolol Hydrochloride, reference compound] | 2300 | 710 | 0.9 | – | – | 3190 | – | – | 2870 | – | – | 148
